Data reported in patent US20250302775A1, “METHODS FOR THE TREATMENT OF DEPRESSION” (Autobahn Therapeutics, Inc., priority 2022, published 2025).

The compounds below were run against T1, recombinant human FAAH (rhFAAH) (Homo sapiens, UniProt O00519) (assay: FAAH substrate evaluation: formation of acid metabolite). Conditions: 0.5 ng/μL rhFAAH, 1 μM test compound, room temperature, pH 8.0, 0-60 minutes.
T1 construct: purchased Cayman Chemical (Ann Arbor, MI, USA)
T1 sequence (O00519 1-579): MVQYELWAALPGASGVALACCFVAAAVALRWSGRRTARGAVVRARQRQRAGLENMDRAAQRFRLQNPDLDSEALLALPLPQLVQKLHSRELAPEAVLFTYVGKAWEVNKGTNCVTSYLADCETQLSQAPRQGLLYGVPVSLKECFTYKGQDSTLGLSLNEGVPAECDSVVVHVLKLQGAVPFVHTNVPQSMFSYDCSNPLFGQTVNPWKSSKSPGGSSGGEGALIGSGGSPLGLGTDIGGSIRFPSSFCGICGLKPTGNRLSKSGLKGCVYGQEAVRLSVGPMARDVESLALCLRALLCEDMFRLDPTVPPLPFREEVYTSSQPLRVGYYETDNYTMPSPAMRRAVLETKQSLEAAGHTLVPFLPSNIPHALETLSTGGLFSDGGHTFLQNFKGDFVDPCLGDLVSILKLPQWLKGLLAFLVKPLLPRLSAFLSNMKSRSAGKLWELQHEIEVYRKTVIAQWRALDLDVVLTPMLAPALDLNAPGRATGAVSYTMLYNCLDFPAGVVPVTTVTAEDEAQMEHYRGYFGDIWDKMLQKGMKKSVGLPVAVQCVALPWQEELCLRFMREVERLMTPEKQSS
Format: biochemical
Protocol: Purified recombinant human FAAH (rhFAAH) was purchased from Cayman Chemical (Ann Arbor, MI, USA). The total volume for each incubation was 400 μL containing a final 0.5 ng/μL rhFAAH, 1 μM test compound, 1.25% ethanol or 1 μM PF-3845 (FAAH inhibitor), and 0.1% bovine serum albumin in Tris-EDTA buffer at pH 8.0). The positive control was LL-341001. The incubation was conducted at the room temperature. At 0, 5, 15, 30 and 60 minutes, an aliquot of 30 μL reaction mixtures was removed and mixed with 300 μL acetonitrile containing 5 ng/mL terfenadine and 10 ng/mL tolbutamide as internal standards to quench the reaction. The resulting mixture was centrifuged at 4000 rpm, 4° C. for 15 minutes, and 100 μL supernatant was ready for LC-MS/MS analysis to measure the formation of acid metabolite.
Acquity Ultra Performance LC system from Waters was used for sample analysis. The chromatography was performed on a reverse phase Kinetex 2.6 μm C18 column, 2.1×30 mm, 100 Å. The mobile phase A comprised of 0.1% formic acid in water and mobile phase B comprised of 0.1% formic acid in acetonitrile with a 2-min run time at the flow rate of 0.8 mL/min for the acid metabolite from positive control or a 1.5 min run time at the flow rate of 0.9 mL/min for the acid metabolite of test compounds. The mass spectrometer (API-5500 and API Q Trap 4000 Applied Biosystems/MDS SCIEX Instruments, Framingham, MA, USA) was operated under ESI positive or negative ion MRM mode.
The formation of acid metabolite was monitored and quantified using one calibration point of 1 μM. The observed rate constant (ke) for the acid metabolite formation was calculated by plotting the metabolite concentration versus time of incubation with the slope being ke and is shown in Table 1.

| SMILES | ke (observed rate constant for the acid metabolite formation) |
| --- | --- |
| CNC(=O)COc1cc(Cl)c(Cc2ccc(O)c(C(C)C)c2)c(Cl)c1 [Compound 1] | A (A = ke is more than or equal to 0.1) |
| Cc1noc(NC(=O)COc2cc(Cl)c(Cc3ccc(O)c(C(C)C)c3)c(Cl)c2)c1C [Compound 103] | A (A = ke is more than or equal to 0.1) |
| CC(C)c1cc(Cc2c(Cl)cc(OCC(=O)Nc3cccnn3)cc2Cl)ccc1O [Compound 104] | A (A = ke is more than or equal to 0.1) |
| CC(C)c1cc(Cc2c(Cl)cc(OCC(=O)NC3CCCCC3)cc2Cl)ccc1O [Compound 105] | C (C = ke is 0) |
| CC#CCNC(=O)COc1cc(Cl)c(Cc2ccc(O)c(C(C)C)c2)c(Cl)c1 [Compound 106] | B (B = ke is less than 0.1 and more than 0) |
| CC#CCN(C)C(=O)COc1cc(Cl)c(Cc2ccc(O)c(C(C)C)c2)c(Cl)c1 [Compound 107] | B (B = ke is less than 0.1 and more than 0) |
| CC(C)c1cc(Cc2c(Cl)cc(OCC(=O)N(C)N(C)C)cc2Cl)ccc1O [Compound 108] | B (B = ke is less than 0.1 and more than 0) |
| CC(C)c1c(O)ccc(Cc2c(Cl)cc(OCC(=O)Nc3cncnc3)cc2Cl)c1F [Compound 109] | A (A = ke is more than or equal to 0.1) |
| CC(C)c1c(O)ccc(Cc2c(Cl)cc(OCC(=O)Nc3ccncn3)cc2Cl)c1F [Compound 110] | A (A = ke is more than or equal to 0.1) |
| CC(C)c1cc(Cc2c(Cl)cc(OCC(=O)N[C@@H]3C[C@@H]3F)cc2Cl)ccc1O [Compound 111] | A (A = ke is more than or equal to 0.1) |
| CC(C)c1cc(Cc2c(Cl)cc(OCC(=O)NCCCF)cc2Cl)ccc1O [Compound 112] | A (A = ke is more than or equal to 0.1) |
| COc1ccc(NC(=O)COc2cc(Cl)c(Cc3ccc(O)c(C(C)C)c3)c(Cl)c2)nn1 [Compound 113] | A (A = ke is more than or equal to 0.1) |
| CC(C)c1cc(Cc2c(Cl)cc(OCC(=O)Nc3cccnc3)cc2Cl)ccc1O [Compound 114] | A (A = ke is more than or equal to 0.1) |
| CC(C)c1cc(Cc2c(Cl)cc(OCC(=O)Nc3ccnnc3)cc2Cl)ccc1O [Compound 116] | A (A = ke is more than or equal to 0.1) |
| CC(C)c1cc(Cc2c(Cl)cc(OCC(=O)N3CCCC3)cc2Cl)ccc1O [Compound 117] | B (B = ke is less than 0.1 and more than 0) |
| CC(C)c1cc(Cc2c(Cl)cc(OCC(=O)N3CCC3)cc2Cl)ccc1O [Compound 118] | B (B = ke is less than 0.1 and more than 0) |

| SMILES | ke (observed rate constant for the acid metabolite formation) |
| --- | --- |
| CC(C)c1cc(Cc2c(Cl)cc(OCC(=O)NC(C)(C)C)cc2Cl)ccc1O [Compound 119] | C (C = ke is 0) |
| CC(C)CN(C)C(=O)COc1cc(Cl)c(Cc2ccc(O)c(C(C)C)c2)c(Cl)c1 [Compound 120] | C (C = ke is 0) |
| CC(C)CNC(=O)COc1cc(Cl)c(Cc2ccc(O)c(C(C)C)c2)c(Cl)c1 [Compound 121] | C (C = ke is 0) |
| CC(C)c1cc(Cc2c(Cl)cc(OCC(=O)N(C)C(C)C)cc2Cl)ccc1O [Compound 122] | B (B = ke is less than 0.1 and more than 0) |
| CC(C)c1cc(Cc2c(Cl)cc(OCC(=O)N(C)CCO)cc2Cl)ccc1O [Compound 123] | B (B = ke is less than 0.1 and more than 0) |
| CNN(C)C(=O)COc1cc(Cl)c(Cc2ccc(O)c(C(C)C)c2)c(Cl)c1 [Compound 124] | B (B = ke is less than 0.1 and more than 0) |
| CC(C)c1cc(Cc2c(Cl)cc(OCC(=O)N(C)CCF)cc2Cl)ccc1O [Compound 125] | B (B = ke is less than 0.1 and more than 0) |
| CC(C)NC(=O)COc1cc(Cl)c(Cc2ccc(O)c(C(C)C)c2)c(Cl)c1 [Compound 126] | A (A = ke is more than or equal to 0.1) |
| CC(C)c1cc(Cc2c(Cl)cc(OCC(=O)NC3CCC3)cc2Cl)ccc1O [Compound 127] | B (B = ke is less than 0.1 and more than 0) |
| C=CCN(C)C(=O)COc1cc(Cl)c(Cc2ccc(O)c(C(C)C)c2)c(Cl)c1 [Compound 128] | B (B = ke is less than 0.1 and more than 0) |
| CCCN(C)C(=O)COc1cc(Cl)c(Cc2ccc(O)c(C(C)C)c2)c(Cl)c1 [Compound 129] | B (B = ke is less than 0.1 and more than 0) |
| CCN(C)C(=O)COc1cc(Cl)c(Cc2ccc(O)c(C(C)C)c2)c(Cl)c1 [Compound 130] | B (B = ke is less than 0.1 and more than 0) |
| CC(C)c1cc(Cc2c(Cl)cc(OCC(=O)N(C)CC(F)(F)F)cc2Cl)ccc1O [Compound 131] | B (B = ke is less than 0.1 and more than 0) |
| CC(C)c1cc(Cc2c(Cl)cc(OCC(=O)N(C)CC(F)F)cc2Cl)ccc1O [Compound 132] | B (B = ke is less than 0.1 and more than 0) |
| CC(C)c1cc(Cc2c(Cl)cc(OCC(=O)N3CCOCC3)cc2Cl)ccc1O [Compound 133] | A (A = ke is more than or equal to 0.1) |

Each compound was assayed against T2, recombinant human FAAH (Homo sapiens, UniProt O00519) (assay: FAAH inhibition, apparent IC50 with AMC substrate). Conditions: 30 min preincubation with recombinant human FAAH and AMC; read-out: Apparent IC50s.
T2 sequence (O00519 1-579): T1 sequence (O00519 1-579)
Format: biochemical

| SMILES | IC50 [nM] |
| --- | --- |
| O=C(Nc1cccnn1)N1CCC(=Cc2cccc(Oc3ccc(C(F)(F)F)cn3)c2)CC1 [PF-04457845] | 3 |
| NC(=O)c1cccc(-c2cc(OC(=O)NC3CCCCC3)ccc2O)c1 [URB937] | 69 |

Each compound was assayed against T3, FAAH (Mus musculus, UniProt O08914) (assay: tissue distribution in mice after co-dosing ABX-002 with or without PFI or GFI). Conditions: after prodrug (ABX-002) co-dosing, mice.
T3 construct: from tissue; host or cells: living mice (plasma, liver, brain)
T3 sequence (O08914 1-579): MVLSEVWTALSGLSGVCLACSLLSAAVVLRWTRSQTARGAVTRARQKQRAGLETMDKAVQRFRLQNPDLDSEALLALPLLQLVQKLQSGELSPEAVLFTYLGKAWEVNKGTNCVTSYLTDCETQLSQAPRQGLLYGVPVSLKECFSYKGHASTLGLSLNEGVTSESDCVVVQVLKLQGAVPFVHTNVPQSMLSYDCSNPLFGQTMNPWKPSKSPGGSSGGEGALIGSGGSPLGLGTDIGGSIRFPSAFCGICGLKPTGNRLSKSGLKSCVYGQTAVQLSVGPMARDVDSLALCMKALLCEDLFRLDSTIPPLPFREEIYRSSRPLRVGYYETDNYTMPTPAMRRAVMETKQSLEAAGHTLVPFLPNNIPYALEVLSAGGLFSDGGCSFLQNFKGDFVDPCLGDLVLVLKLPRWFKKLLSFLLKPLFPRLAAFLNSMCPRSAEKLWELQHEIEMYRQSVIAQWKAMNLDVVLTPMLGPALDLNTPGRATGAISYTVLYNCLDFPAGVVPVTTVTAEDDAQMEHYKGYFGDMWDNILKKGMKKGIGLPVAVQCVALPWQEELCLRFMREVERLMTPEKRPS
Format: in vivo
Protocol: The ability of globally-penetrant and peripherally-restricted FAAH inhibitors (GFI & PFI, respectively) to alter distribution of ABX-002 and ABX-002A was assessed.
Table 5 depicts the inhibition of active metabolite (LL-650177 or PF-044578454) in AUC in the plasma, liver, and brain after prodrug (ABX-002) co-dosing. Tissue distribution studies in mice confirm global & peripheral inhibition of FAAH.

| SMILES | inhibition of active metabolite AUC, Brain [%] | inhibition of active metabolite AUC, Liver [%] | inhibition of active metabolite AUC, Plasma [%] |
| --- | --- | --- | --- |
| O=C(Nc1cccnn1)N1CCC(=Cc2cccc(Oc3ccc(C(F)(F)F)cn3)c2)CC1 [PF-04457845] | 83 | 94 | 94 |

Same assay, conditions: co-dosing with PFI or GFI, mice

| SMILES | prodrug levels in plasma, liver and brain with FAAH inhibition |
| --- | --- |
| CNC(=O)COc1cc(Cl)c(Cc2ccc(O)c(C(C)C)c2)c(Cl)c1 [Compound 1] | did not change or slightly increased |

Same assay, conditions: peripheral or global FAAH inhibitor

| SMILES | Distribution |
| --- | --- |
| O=C(Nc1cccnn1)N1CCC(=Cc2cccc(Oc3ccc(C(F)(F)F)cn3)c2)CC1 [PF-04457845] | Global |
| NC(=O)c1cccc(-c2cc(OC(=O)NC3CCCCC3)ccc2O)c1 [URB937] | Peripheral |
